# Measurements from ChEMBL document CHEMBL1128802, “Hydroxy-anthraquinones as antimalarial agents” (Bioorg Med Chem Lett, 1995).
# Key:
# [1] = tested on: Plasmodium falciparum; test: In vitro inhibitory activity against Plasmodium falciparum D6; type: functional, organism-based
# [2] = tested on: CFU-GM; test: In vitro toxicity against human bone marrow stem cells(CFU-GM) at a dose of 0.1 uM; activity expressed as average colony count; type: functional
# [3] = tested on: CFU-GM; test: In vitro toxicity against human bone marrow stem cells(CFU-GM) in the absence (control); activity expressed as average colony count; type: functional
# [4] = tested on: CFU-GM; test: In vitro toxicity against human bone marrow stem cells(CFU-GM) at a dose of 5.0 uM; activity expressed as average colony count; type: functional
# [5] = tested on: CFU-GM; test: In vitro toxicity against human bone marrow stem cells(CFU-GM) at a dose of 100.0 uM; activity expressed as average colony count; type: functional
# [6] = tested on: CFU-GM; test: In vitro toxicity against human bone marrow stem cells(CFU-GM) at a dose of 1.0 uM; activity expressed as average colony count; type: functional
# [7] = tested on: CFU-GM; test: In vitro toxicity against human bone marrow stem cells(CFU-GM) at a dose of 10.0 uM; activity expressed as average colony count; type: functional
# [8] = tested on: CFU-GM; test: In vitro toxicity against human bone marrow stem cells (CFU-GM) in the absence (control); activity expressed as average colony count; type: functional, Bone element
SMILES,IC50 [1] [µM],other results
O=C1c2ccccc2C(=O)c2ccccc21 [ANTHRAQUINONE],5,–
COc1cc2c(cc1OC)C(=O)c1cc(OC)c(OC)cc1C2=O,≥ 5,–
CCN(CC)CCCC(C)Nc1ccnc2cc(Cl)ccc12 (centres undefined) [CHLOROQUINE],–,Average colony count [2]: 56; Average colony count [3]: 56; Average colony count [4]: 54; Average colony count [5]: 5; Average colony count [6]: 54; Average colony count [7]: 48
COc1c(Br)c2c(c(OC)c1OC)C(=O)c1c(Br)c(OC)c(OC)c(OC)c1C2=O,≥ 5,–
O=C1c2ccccc2C(=O)c2c(O)c(O)cc(O)c21 [PURPURIN],> 1,–
O=C1c2c(O)c(O)c(O)c(O)c2C(=O)c2c(O)c(O)c(O)c(O)c21,0.8,–
O=C1c2ccc(O)cc2C(=O)c2ccc(O)cc21 [ANTHRAFLAVICACID],> 1,–
COc1cc2c(c(OC)c1OC)C(=O)c1cc(OC)c(OC)c(OC)c1C2=O,≥ 5,–
O=C1c2cccc(O)c2C(=O)c2cccc(O)c21 [ANTHRARUFIN],> 1,–
O=C1c2cc(O)c(O)cc2C(=O)c2cc(O)c(O)cc21,0.3,–
O=C1c2cc(O)c(O)c(O)c2C(=O)c2cc(O)c(O)c(O)c21,0.035,Average colony count [2]: 61; Average colony count [4]: 47; Average colony count [5]: 5; Average colony count [8]: 56; Average colony count [6]: 57; Average colony count [7]: 36
O=C1c2c(O)c(O)c(O)c(Br)c2C(=O)c2c(O)c(O)c(O)c(Br)c21,5,–
COc1c(OC)c(OC)c2c(c1OC)C(=O)c1c(OC)c(OC)c(OC)c(OC)c1C2=O,≥ 5,–
